# Laboratory results taken from article PMC9007951, “Systematically evaluating DOTATATE and FDG as PET immuno-imaging tracers of cardiovascular inflammation” (Scientific Reports, 2022).
# Legend:
# [1] = Blood half-life of [^68Ga]Ga-DOTATATE, gamma counting of venous blood, two-phase decay fit; assay type: in vivo, New Zealand White rabbits
# Method: Adopting a translational approach, the rabbit studies were performed with the [^68Ga]Ga-labeled tracer, which is already being used in the clinic. [^68Ga]Ga-DOTATATE was purchased from Advanced Accelerator Applications (AAA, Millburn, NJ, USA). To determine its pharmacokinetics, three atherosclerotic rabbits and two healthy controls were injected with approximately 190 MBq of [^68Ga]Ga-DOTATATE. Venous blood was sampled at 1, 5, 10, 15, 20, 30, 60, 120, 180, 240 and 300 min after injection through the ear vein. Samples were weighed and gamma counted. Blood half-life data were fitted using a two-phase decay non-linear regression using GraphPad Prism v8.4.3 (Supplementary Table S1). To investigate the tracer blood distribution, blood samples were centrifuged at 2000 g for 15 min at 4 °C to determine the radioactivity concentration in the plasma and cellular fractions. To analyze [^68Ga]Ga-DOTATATE biodistribution, all rabbits were euthanized after the last imaging time-point using an injection of pentobarbital 100 mg/kg and exsanguination of the portal vein. Rabbits were extensively perfused with 1000 mL of saline. Following, tissues (blood, heart, aorta, liver, kidney, skeletal muscle, small and large intestine, fat, stomach, pancreas and bladder) were harvested, weighed and gamma counted.
# [2] = tested on: C57Bl/6 mice subjected to myocardial infarction; assay: In vivo PET/CT of cardiac inflammation in infarcted mice; settings: tracer circulated 60 min, median
# Method: (§1) Myocardial infarction in mice was induced by permanent ligation of the left anterior descending (LAD) coronary artery of female C57Bl/6 mice (N = 18). Briefly, animals were anesthetized with xylazine (10 mg/kg) and ketamine (100 mg/kg) and intubated using an endotracheal intubation kit from Braintree Scientific (Braintree, MA). Left-sided thoracotomy and pericardial incision were performed. A 7-0 Silk suture was used to occlude the LAD. Incisions were closed with a 5-0 Silk suture. Infarcted animals were treated with 0.1 mg/kg of buprenorphine every 12 h and used 3 days after the surgery.
# (§2) For the PET/CT experiments, mice were fasted for 12 h before radiotracer injection and anesthetized with xylazine (10 mg/kg) and ketamine (100 mg/kg) through intraperitoneal injection prior to radiotracer administration. Subsequently they were injected via the lateral tail vein with approximately 22.2 MBq of [^18F]F-FDG or 5.55 MBq of [^64Cu]Cu-DOTATATE. Tracers were allowed to circulate for 60 min. Immediately before imaging, mice were placed under 1% isoflurane (BaxterHealthcare, Deerfield, IL), and subsequently imaged on a high resolution (700 µm) Mediso nanoScan PET/CT scanner (Mediso, Budapest, Hungary). CT scan was acquired at 50 kVp and 300 ms exposure per projection. eXIA160 (Binitio, Ontario, Canada) was used as a contrast agent to improve imaging of the vasculature by intravenous administration of 100 μl per mouse 5 min prior to CT acquisition. PET acquisition time was 40 min. Reconstruction was performed using TeraTomo 3D reconstruction engine, for 8 iterations and 6 subsets per iteration for both tracers. The voxel size was isotropic at 0.3 mm. Immediately after the PET/CT scan, animals were euthanized for ex vivo assays.
# (§3) Using OsiriX v5.6 software (OsiriX Foundation, Geneva, Switzerland), regions of interest (ROIs) were drawn to determine organ radioactivity concentration. In mice, for healthy and infarcted myocardium, ROIs were traced manually in the apex of the heart in the axial view. For remote myocardium, analysis was performed in myocardium 180° from the infarcted zone. In the mice aorta, sequential ROIs were drawn in the ascending aorta based on consecutive tomographic (CT) slices beginning from the root up to the brachiocephalic branch, merging point with the aortic arch. Voxel counts were converted to maximum standardized uptake values (SUVmax). In rabbits, PET images were fused with time-of-flight bright blood MRI angiography and ROIs were manually drawn on the infrarenal abdominal aorta in TOF images. The slice-by-slice maximum standard uptake values (SUVmax) were averaged across the whole aorta. […]
# [3] = tested on: Apoe^−/− atherosclerotic mice; assay: In vivo PET/CT of vascular inflammation in atherosclerotic mice; settings: tracer circulated 60 min, median, N = 4
# Method: (§4) Animals were housed under a constant room temperature at 25 ± 2 °C and 50 ± 5% humidity with a 12-h daylight period and 12-h darkness period, with free access to water. For the mouse atherosclerosis model, 8-weeks old female Apoe^−/− mice (N = 51) were purchased from Jackson Laboratories (Bar Harbor, ME) and, after a 48 h acclimatization period, were fed a Western Diet (42% Kcal from fat TD88137, Envigo, Huntingdon, UK) for 12 weeks. 16–20 weeks old female C57Bl/6 controls (N = 67) were kept on regular chow diet. The myocardial infarction group consisted 16–20 weeks old female C57Bl/6 mice (N = 18) purchased from Jackson Laboratories and subjected to ligation of the left anterior descending artery, as previously described.
# as §2, §3
# [4] = In vivo PET/CT of cardiac inflammation in infarcted mice; settings: female, mouse, heart, iv, 5.55 MBq, total radioactivity, healthy C57Bl/6 mice, tracer circulated 60 min, median, N = 4, read-out: SUVmax heart of control animals
# Method: as §1, §2, §3
# [5] = In vivo PET/CT of vascular inflammation in atherosclerotic mice; settings: female, mouse, ascending aorta, iv, 5.55 MBq, total radioactivity, tracer circulated 60 min, median, N = 4, read-out: SUVmax ascending aorta
# Method: as §4, §2, §3
# [6] = C57Bl/6 mice 3 days after LAD ligation, N = 4 ([^64Cu]Cu-DOTATATE), N = 6 ([^18F]F-FDG)
# [7] = Apoe^−/− mice 12 weeks on Western Diet
compound,measurement,setting,value
"C[C@@H](O)[C@H](NC(=O)[C@@H]1CSSC[C@H](NC(=O)[C@@H](Cc2ccccc2)NC(=O)CN2CCN(CC(=O)O)CCN(CC(=O)O)CCN(CC(=O)O)CC2)C(=O)N[C@@H](Cc2ccc(O)cc2)C(=O)N[C@H](Cc2c[nH]c3ccccc23)C(=O)N[C@@H](CCCCN)C(=O)N[C@@H]([C@@H](C)O)C(=O)N1)C(=O)O [[^68Ga]Ga-DOTATATE, metal not drawn]",%fast,"[1]; athero4mo rabbits, N = 3",53.17%
same,%slow,"[1]; athero4mo rabbits, N = 3",46.83%
same,Weighed t1/2 (weighted half-life),"[1]; athero4mo rabbits, N = 3",53.66 min
same,t1/2 fast,"[1]; athero4mo rabbits, N = 3",19.17 min
same,t1/2 slow,"[1]; athero4mo rabbits, N = 3",92.82 min
same,%fast,"[1]; control rabbits, N = 2",39.7%
same,%slow,"[1]; control rabbits, N = 2",60.3%
same,Weighed t1/2 (weighted half-life),"[1]; control rabbits, N = 2",21.17 min
same,t1/2 fast,"[1]; control rabbits, N = 2",3.419 min
same,t1/2 slow,"[1]; control rabbits, N = 2",32.86 min
"OC[C@H]1OC(O)[C@H]([18F])[C@@H](O)[C@@H]1O (stereo partly drawn) [[^18F]F-FDG, [^18F]F-fluorodeoxyglucose]",SUVmax infarcted myocardium,[2]; [6],4.2
same,SUVmax remote (non-infarcted) myocardium,[2]; [6],2.1
same,SUVmax heart of control animals,"[2]; healthy C57Bl/6 mice, N = 4",3.4
same,SUVmax ascending aorta,[3]; [7],1.2
same,SUVmax ascending aorta,[3]; healthy C57Bl/6 control mice,1.7
"C[C@@H](O)[C@H](NC(=O)[C@@H]1CSSC[C@H](NC(=O)[C@@H](Cc2ccccc2)NC(=O)CN2CCN(CC(=O)O)CCN(CC(=O)O)CCN(CC(=O)O)CC2)C(=O)N[C@@H](Cc2ccc(O)cc2)C(=O)N[C@H](Cc2c[nH]c3ccccc23)C(=O)N[C@@H](CCCCN)C(=O)N[C@@H]([C@@H](C)O)C(=O)N1)C(=O)O [[^64Cu]Cu-DOTATATE, metal not drawn]",SUV at 1 h,[4],0.6 SUV
same,SUV at 1 h,[5]; [7],1.1 SUV
same,SUV at 1 h,[5]; healthy C57Bl/6 control mice,0.5 SUV
